According to paper PMC8386742, “Discovery of N-aryl sulphonamide-quinazoline derivatives as anti-gastric cancer agents in vitro and in vivo via activating the Hippo signalling pathway” (Journal of Enzyme Inhibition and Medicinal Chemistry, 2021):

Experiments:
[1] = system: MGC-803 cells; assay: MTT antiproliferative assay, MGC-803 cells; assay type: cell-based, human; details: exposure for 48 h
Experimental: The in vitro antiproliferative activities of new target compounds 6a–6g, 9a–9i, 10a–10j, 11a–11j, and 14a–14d were evaluated against four human cancer cell lines (MGC-803, PC-3, HCT-116, and MCF-7) using MTT assay and 5-FU as a positive drug. The following Tables 1–[4] depicted the results of in vitro antiproliferative activity.
Cell lines used were cultured in humidified incubator in a humidified atmosphere of 5% CO2 and 95% air. The RPMI-1640 medium was supplemented with 10% foetal bovine serum, penicillin (100 U/ml) and streptomycin (0.1 mg/ml).
Cell lines were seeded into 96-well plates and incubated for 24 h. Then cells were treated with different concentrations of compounds. And after another 48 h, MTT reagent (20 μL per well) was added to each well and then incubated at 37 °C for 4 h. After the suspension was discarded, formazan was then dissolved with DMSO. Absorbencies of formazan solution were measured at 490 nm. The IC50 values of tested compounds were calculated by SPSS version 17.0.

[2] = system: MGC-803 and SGC-7901 cells; assay: Cell cycle distribution in gastric cancer cells; assay type: cell-based; details: 24 h
Excerpt: (§1) Because of the potent inhibitory activity on cell viability of compound 9i, we next explored the effects of compound 9i on cell proliferation in MGC-803 and SGC-7901 cells.
(§2) Figure 6. Gastric cancer cell proliferation inhibition inhibited by 9i. Density ratios relative to β-Actin were shown on the top of each Western blotting band. (A,B) Cell growth curves of in MGC-803 and SGC-7901 cells after the treatment with indicated concentrations of 9i for different hours; (C,D). Gastric cancer cell colony formation, cells were treated for 7 days; (E) Cell cycle distribution of MGC-803 and SGC-7901 after the treatment with indicated concentrations of 9i for 24 h; (F,G) Cell cycle related proteins in gastric cancer cells after the treatment with indicated concentrations of 9i for 24 h.

[3] = In vivo toxicity in MGC-803 bearing mice (body weight, blood biochemistry, H&E); design: species or system nude mice
Experimental: The bodyweight of mice was recorded during the treatment every 3 days. […] Blood samples and organs were collected after mice were executed.
A human gastric cancer subcutaneous transplantation tumour model was established with MGC-803 cells. After the tumour volume reaches 100 mm3 the MGC-803 bearing mice were randomised into 3 groups and intraperitoneal injection with normal saline or drugs continuously for 21 days. Tumour volume was measured every 3 days (Length × Width2/2). Mice were executed after treatment. 500 μL blood samples was collected each mouse, samples were then centrifuged at 2000 g for 10 min for biochemistry analysis. Tumour and organs tissues were harvested for H&E staining or immunochemistry detection. The experiments in the study were performed comply with the protocols approved by the Institutional Animal Care and Use Committee, Zhengzhou University.

[4] = system: SGC-7901 cells; assay: Annexin V-FITC/PI cell apoptosis assay, SGC-7901 cells; assay type: cell-based; details: SGC-7901, high dose, 48 h
Experimental: Bcl-2 regulated by the Hippo/YAP plays an important role in cell apoptosis. Therefore, we next examined the effects of compound 9i on cell apoptosis. MGC-803 and SGC-7901 cells were treated with compound 9i for 48 h, as shown in Figures 5(A,B), the nuclei of gastric cancer are dense and fragmented, and cells became round, small, and was induced to die. To determine the influence of compound 9i on cell death, MGC-803 and SGC-7901 cells treated with compound 9i were stained with Annexin V-FITC/PI. As shown in Figure 5(C), the high dose compound 9i treatment group induced over 60% of cell apoptosis at 48 h. As shown in Figure 5(D), some other apoptosis-related proteins were also regulated by compound 9i in MGC-803 and SGC-7901 cells. Compound 9i caused dose-dependent decreases of anti-apoptosis proteins c-IAP and Mcl-1. […] Mitochondrial membrane potential depolarisation and translocation from the mitochondria to the cytoplasm of cytochrome c are two key steps involved in the intrinsic apoptosis pathway. As shown in Figures 5(F–H), compound 9i depolarised mitochondrial membrane potential and induced the translocation of cytochrome c.
Figure 5. Compound 9i induced apoptosis in MGC-803 and SGC-7901 cells. Density ratios relative to β-Actin were shown on the top of each Western blotting band. […] The cell line of each row appears only in tiny plot titles that cannot be read with certainty. […]

[5] = system: MGC-803 and SGC-7901 cells; assay: Colony formation assay in gastric cancer cells; assay type: cell-based; details: 150 nM, 7 days
Excerpt: as §1, §2
In this work, some other assays including colony formation assay, cell apoptosis assay and immunostaining assay were referred to our previous work[35]^,[36].

COc1ccc(S(=O)(=O)N(Cc2nc(C)c3ccccc3n2)c2cc(OC)c(OC)c(OC)c2)cc1 [Compound 9i, 4-Methoxy-N-((4-methylquinazolin-2-yl)methyl)-N-(3,4,5-trimethoxyphenyl) benzene-sulfonamide]
IC50 ([1]; Homo sapiens, MGC-803, 48 h): 360 ± 20 nM
IC50 [1]: 363 nM
cell cycle arrest [2]: remarkable and dose-dependent G2/M arrest
blood biochemical indexes (ALT, AST, T-BIL, UA, CRE, BUN) versus vehicle control group ([3]; blood samples after execution): no significant difference
toxicity in vivo ([3]; body weight, blood biochemistry, H&E staining of organs): did not show obvious toxicity in vivo
bodyweight of mice versus vehicle control group ([3]; recorded every 3 days during 21 days treatment): did not show a significant difference
cell apoptosis [4]: over 60%
colony formation [5]: significantly decreased
